Measurements from patent US8101768B2, “Cyclic amine compound and pest control agent” (Nippon Soda Co., Ltd., priority 2004, dated 2012).

test system: organophosphorous agent resistant two-spotted spider mites; assay: Effect on Two-spotted Spider Mite (spray on kidney bean leaves); assay type: in vivo; conditions: 125 ppm, water dispersible powder of Formulation Example 1 sprayed, 17 female adults, 25° C., 65% humidity, 3 days
Description: Effect on Two-spotted Spider Mite
17 female adults of organophosphorous agent resistant two-spotted spider mites were inoculated onto the first leaves of kidney beans seeded onto 3.5 inch pots and germinated 7 to 10 days before, onto which each of liquid agents, diluted with water so as to adjust the respective concentration of the chemical compounds to 125 ppm according to the formulation of the water dispersible powder shown in the aforementioned Formulation Example 1, was sprayed. After they were left in a thermostatic chamber at 25° C. in 65% humidity for 3 days, the rate of killed adults was investigated. The examination was repeated twice. As the results, the following chemical compounds killed 100% of the adults.

With `CCCOC(=O)c1cc(C(F)(F)F)ccc1O[C@@H]1[C@@H]2CC[C@H]1CN(c1ccc(C(F)(F)F)cn1)C2` [5-244] as the compound, how does the “rate of killed adults” value read?
Its value is 100%.

`O=C(OC1CCOC1)c1cc(C(F)(F)F)ccc1OC1CC2CCC(C1)N2c1ccc(C(F)(F)F)cn1` (centres unmarked) [2-225] was tested. Which “rate of killed adults” value did it give?
The value was 100%.

How did the “rate of killed adults” value turn out when `Cc1cc(C)c(OC2CCN(c3ccc(C(F)(F)F)cn3)CC2)c(C)c1` [1-47] was run?
Its value is 100%.

For `CCCNc1cc(C(F)(F)F)ccc1OC1CC2CCC(C1)N2c1ccc(C(F)(F)F)cn1` (centres unmarked) [2-160], which “rate of killed adults” value is on record?
Its value is 100%.

Which “rate of killed adults” value does the source give for `CCCOc1cc(C(F)(F)F)ccc1OC1CC2CCC(C1)N2c1ccc(Cl)cn1` (centres unmarked) [2-85] here?
Its value is 100%.

With `FC(F)(F)c1ccc(N2CC3CCC(C2)C3Oc2ccc(C(F)(F)F)cc2OCc2ccco2)nc1` (centres unmarked) [5-206] as the compound, how does the “rate of killed adults” value read?
The value was 100%.

For `FC(F)(F)c1ccc(N2CC3CCC(C2)C3Oc2ccc(C(F)(F)F)cc2OCc2cccnc2)nc1` (centres unmarked) [5-211], which “rate of killed adults” value is on record?
The value was 100%.

How did the “rate of killed adults” value turn out when `FC(F)(F)c1ccc(N2CC3CCC(C2)C3Oc2ccc(C(F)(F)F)cc2OCC2CCO2)nc1` (centres unmarked) [5-213] was run?
Its value is 100%.

`CC(C)(C)OC(=O)c1cc(C(F)(F)F)ccc1OC1CC2CCC(C1)N2c1ccc(C(F)(F)F)cn1` (centres unmarked) [2-198] was tested. Which “rate of killed adults” value did it give?
The value was 100%.

Which “rate of killed adults” value does the source give for `FC(F)(F)c1ccc(N2C3CCC2CC(Oc2ccc(C(F)(F)F)cc2OCC=CCl)C3)nc1` (mixture of isomers) [2-148] here?
The value was 100%.

With `CCCCC(O)c1cc(C(F)(F)F)ccc1OC1C2CCC1CN(c1ccc(C(F)(F)F)cn1)C2` (centres unmarked) [5-238] as the compound, how does the “rate of killed adults” value read?
The value was 100%.

With `CON=C(C)COc1cc(C(F)(F)F)ccc1OC1C2CCC1CN(c1ccc(C(F)(F)F)cn1)C2` (centres unmarked) [5-184] as the compound, how does the “rate of killed adults” value read?
Its value is 100%.

Which “rate of killed adults” value does the source give for `CCC(Cl)c1cc(C(F)(F)F)ccc1OC1CCN(c2ccc(C(F)(F)F)cn2)CC1` (centres unmarked) [1-82] here?
The value was 100%.

Which “rate of killed adults” value does the source give for `CCC(C)=NOc1cc(C(F)(F)F)ccc1OC1CC2CCC(C1)N2c1ccc(C(F)(F)F)cn1` (mixture of isomers) [2-226] here?
The value was 100%.

How did the “rate of killed adults” value turn out when `Cc1coc(-c2cc(C(F)(F)F)ccc2OC2CC3CCC(C2)N3c2ccc(C(F)(F)F)cn2)n1` (centres unmarked) [2-209] was run?
Its value is 100%.

With `CCOc1cc(C(F)(F)F)ccc1OC1CCN(c2ccc(Cl)cn2)CC1` [1-90] as the compound, how does the “rate of killed adults” value read?
Its value is 100%.

For `CC(C)(C)CC(O)c1cc(C(F)(F)F)ccc1O[C@@H]1[C@@H]2CC[C@H]1CN(c1ccc(C(F)(F)F)cn1)C2` (some centres unmarked) [5-255], which “rate of killed adults” value is on record?
The value was 100%.

Which “rate of killed adults” value does the source give for `CCCOc1cc(C(F)(F)F)ccc1OC1CC2CCC(C1)N2c1ccc(C#N)cn1` (centres unmarked) [2-93] here?
The value was 100%.

How did the “rate of killed adults” value turn out when `C=CCOc1cc(C(F)(F)F)ccc1OC1CC2CCC(C1)N2c1ccc(C(F)(F)F)cn1` (centres unmarked) [2-141] was run?
Its value is 100%.

For `CCOc1cc(C(F)(F)F)ccc1OC1CC2CCC(C1)N2c1ccc(C(F)(F)F)cn1` (centres unmarked) [2-78], which “rate of killed adults” value is on record?
Its value is 100%.

With `COCCc1cc(C(F)(F)F)ccc1O[C@@H]1[C@@H]2CC[C@H]1CN(c1ccc(C(F)(F)F)cn1)C2` [5-246] as the compound, how does the “rate of killed adults” value read?
Its value is 100%.

Which “rate of killed adults” value does the source give for `CC(C)=CCOc1cc(C(F)(F)F)ccc1OC1C2CCC1CN(c1ccc(C(F)(F)F)cn1)C2` (centres unmarked) [5-139] here?
Its value is 100%.

`FC(F)(F)c1ccc(N2CCC(Oc3ccc(Cl)cc3)CC2)nc1` [1-10] was tested. Which “rate of killed adults” value did it give?
Its value is 100%.

`OCCOc1cc(C(F)(F)F)ccc1OC1CCN(c2ccc(C(F)(F)F)cn2)CC1` [1-118] was tested. Which “rate of killed adults” value did it give?
The value was 100%.

Which “rate of killed adults” value does the source give for `COCCOC(=O)c1cc(C(F)(F)F)ccc1OC1CC2CCC(C1)N2c1ccc(C(F)(F)F)cn1` (centres unmarked) [2-230] here?
Its value is 100%.

`CCCOc1cc(C(F)(F)F)ccc1O[C@H]1C[C@H]2CC[C@@H](C1)N2c1ccc(C(F)(F)F)cn1` [2-82, 3α-[2-propoxy-4-(trifluoromethyl)phenoxy]-8-[5-(trifluoromethyl)-2-pyridyl]-8-azabicyclo[3.2.1]octane] was tested. Which “rate of killed adults” value did it give?
The value was 100%.

`CCCCCOc1cc(C(F)(F)F)ccc1OC1CC2CCC(C1)N2c1ccc(C(F)(F)F)cn1` (centres unmarked) [2-100] was tested. Which “rate of killed adults” value did it give?
Its value is 100%.

Which “rate of killed adults” value does the source give for `C#CCOc1cc(C(F)(F)F)ccc1OC1CCN(c2ccc(C(F)(F)F)cn2)CC1` [1-163] here?
Its value is 100%.

With `FC(F)(F)c1ccc(N2C3CCC2CC(Oc2ccc(C(F)(F)F)cc2OC2CCOC2)C3)nc1` (centres unmarked) [2-179] as the compound, how does the “rate of killed adults” value read?
The value was 100%.

How did the “rate of killed adults” value turn out when `CC(OC(=O)c1cc(C(F)(F)F)ccc1OC1CC2CCC(C1)N2c1ccc(C(F)(F)F)cn1)C1CC1` (centres unmarked) [2-239] was run?
Its value is 100%.

With `CCOc1cc(C(F)(F)F)ccc1OC1CCN(c2ccc(Br)cn2)CC1` [1-91] as the compound, how does the “rate of killed adults” value read?
Its value is 100%.

How did the “rate of killed adults” value turn out when `CN(C)S(=O)(=O)Oc1cc(C(F)(F)F)ccc1OC1CC2CCC(C1)N2c1ccc(C(F)(F)F)cn1` (centres unmarked) [2-155] was run?
Its value is 100%.

Which “rate of killed adults” value does the source give for `CCCOc1cc(C#N)ccc1OC1CC2CCC(C1)N2c1ccc(C(F)(F)F)cn1` (centres unmarked) [2-81] here?
Its value is 100%.

`CC1(C)COC(c2cc(C(F)(F)F)ccc2OC2CC3CCC(C2)N3c2ccc(C(F)(F)F)cn2)=N1` (centres unmarked) [2-210] was tested. Which “rate of killed adults” value did it give?
The value was 100%.

How did the “rate of killed adults” value turn out when `CCOC(=O)c1cc(C(F)(F)F)ccc1OC1CC2CCC(C1)N2c1ccc(C(F)(F)F)cn1` (centres unmarked) [2-193] was run?
The value was 100%.

For `FC(F)(F)c1ccc(N2CCC(Oc3ccc(C(F)(F)F)cc3OCCBr)CC2)nc1` [1-139], which “rate of killed adults” value is on record?
The value was 100%.

For `FC(F)(F)c1ccc(N2CC3CCC(C2)C3Oc2ccc(C(F)(F)F)cc2OCc2ccccn2)nc1` (centres unmarked) [5-212], which “rate of killed adults” value is on record?
Its value is 100%.

Which “rate of killed adults” value does the source give for `CC1COC(c2cc(C(F)(F)F)ccc2OC2CC3CCC(C2)N3c2ccc(C(F)(F)F)cn2)=N1` (centres unmarked) [2-199] here?
The value was 100%.

Which “rate of killed adults” value does the source give for `COCCOc1cc(C(F)(F)F)ccc1OC1CCN(c2ccc(C(F)(F)F)cn2)CC1` [1-115] here?
The value was 100%.

Which “rate of killed adults” value does the source give for `CCC(C)Oc1cc(C(F)(F)F)ccc1OC1CC2CCC(C1)N2c1ccc(C(F)(F)F)cn1` (centres unmarked) [2-177] here?
Its value is 100%.

How did the “rate of killed adults” value turn out when `CC=NOc1cc(C(F)(F)F)ccc1OC1CC2CCC(C1)N2c1ccc(C(F)(F)F)cn1` (mixture of isomers) [2-213] was run?
Its value is 100%.

`N#Cc1cc(C(F)(F)F)ccc1O[C@@H]1[C@@H]2CC[C@H]1CN(c1ccc(C(F)(F)F)cn1)C2` [5-32] was tested. Which “rate of killed adults” value did it give?
The value was 100%.

For `C=C(C)COc1cc(C(F)(F)F)ccc1OC1CC2CCC(C1)N2c1ccc(C(F)(F)F)cn1` (stereo not drawn) [2-147, 3α-[2-(2-methylallyloxy)-4-(trifluoromethyl)phenoxy]-8-[5-(trifluoromethyl)-2-pyridyl]-8-azabicyclo[3.2.1]octane], which “rate of killed adults” value is on record?
Its value is 100%.

`C=C=COc1cc(C(F)(F)F)ccc1OC1CCN(c2ccc(C(F)(F)F)cn2)CC1` [1-143] was tested. Which “rate of killed adults” value did it give?
The value was 100%.

`CCCOc1cc(C(F)(F)F)ccc1O[C@@H]1[C@@H]2CC[C@H]1CN(c1ccc(C(F)F)cn1)C2` [5-99] was tested. Which “rate of killed adults” value did it give?
The value was 100%.

For `FC(F)(F)c1ccc(N2C3CCC2CC(Oc2ccc(C(F)(F)F)cc2ON=C2CCCC2)C3)nc1` (centres unmarked) [2-227], which “rate of killed adults” value is on record?
Its value is 100%.

With `CN(C)C(=O)Sc1cc(C(F)(F)F)ccc1OC1CC2CCC(C1)N2c1ccc(C(F)(F)F)cn1` (centres unmarked) [2-157] as the compound, how does the “rate of killed adults” value read?
Its value is 100%.

How did the “rate of killed adults” value turn out when `COC(C)COc1cc(C(F)(F)F)ccc1OC1CC2CCC(C1)[N+]2([O-])c1ccc(C(F)(F)F)cn1` (centres unmarked) [2-174] was run?
Its value is 100%.

Which “rate of killed adults” value does the source give for `CC#CCOc1cc(C(F)(F)F)ccc1OC1C2CCC1CN(c1ccc(C(F)(F)F)cn1)C2` (centres unmarked) [5-232] here?
Its value is 100%.

Which “rate of killed adults” value does the source give for `CCCCc1cc(C(F)(F)F)ccc1O[C@H]1C[C@H]2CC[C@@H](C1)N2c1ccc(C(F)(F)F)cn1` [2-187, 3α-[2-butyl-4-(trifluoromethyl)phenoxy]-8-[5-(trifluoromethyl)-2-pyridyl]-8-azabicyclo[3.2.1]octane] here?
The value was 100%.
